Assay results published in patent US20130072430A1, “METHODS FOR TREATMENT OR PROPHYLAXIS OF KIDNEY OR LIVER DYSFUNCTION” (NPS PHARMACEUTICALS, INC., priority 2010, published 2013).

Tested on: Human patients with short bowel syndrome
Assay: Example 2: liver biomarkers (albumin, gamma glutamyl transferase, total bilirubin, ALT, AST, ALP) in short bowel syndrome patients, every four weeks for 24 weeks
Type: in vivo
Conditions: 0.05 mg/kg/d; for Gamma Glutamyl Transferase Observed Value, Mean / Gamma Glutamyl Transferase Observed Value, Median / ALKALINE PHOSPHATASE Change from Baseline, Median / ALT Change from Baseline, Mean / ALT Change from Baseline, Median / ALT Observed Value, Mean / ALT Observed Value, Median / AST Change from Baseline, Mean / AST Change from Baseline, Median / AST Observed Value, Mean / AST Observed Value, Median / Albumin Change from Baseline, Mean / Albumin Change from Baseline, Median / Albumin Observed Value, Mean / Albumin Observed Value, Median / Alkaline Phosphatase Change from Baseline, Mean / Alkaline Phosphatase Observed Value, Mean / Alkaline Phosphatase Observed Value, Median / Bilirubin Change from Baseline, Mean / Bilirubin Change from Baseline, Median / Bilirubin Observed Value, Mean / Bilirubin Observed Value, Median / Gamma Glutamyl Transferase Change from Baseline, Mean / Gamma Glutamyl Transferase Change from Baseline, Median: n=38; for ALT >10% decrease from Baseline, % of subjects / ALT >10% decrease from Baseline, n subjects / ALT >10% increase from Baseline, % of subjects / ALT >10% increase from Baseline, n subjects / ALT Within 10% of Baseline, % of subjects / ALT Within 10% of Baseline, n subjects / AST >10% decrease from Baseline, % of subjects / AST >10% decrease from Baseline, n subjects / AST >10% increase from Baseline, % of subjects / AST >10% increase from Baseline, n subjects / AST Within 10% of Baseline, % of subjects / AST Within 10% of Baseline, n subjects / Albumin >10% decrease from Baseline, % of subjects / Albumin >10% decrease from Baseline, n subjects / Albumin >10% increase from Baseline, n subjects / Albumin Within 10% of Baseline, % of subjects / Albumin Within 10% of Baseline, n subjects / Alkaline Phosphatase >10% decrease from Baseline, % of subjects / Alkaline Phosphatase >10% decrease from Baseline, n subjects / Alkaline Phosphatase >10% increase from Baseline, % of subjects / Alkaline Phosphatase >10% increase from Baseline, n subjects / Alkaline Phosphatase Within 10% of Baseline, % of subjects / Alkaline Phosphatase Within 10% of Baseline, n subjects / Bilirubin >10% decrease from Baseline, % of subjects / Bilirubin >10% decrease from Baseline, n subjects / Bilirubin >10% increase from Baseline, % of subjects / Bilirubin >10% increase from Baseline, n subjects / Bilirubin Within 10% of Baseline, % of subjects / Bilirubin Within 10% of Baseline, n subjects: m=38
Experimental: To further confirm the results of Example 1, a further study was conducted involving more individuals and additional diagnostic biomarkers. Human patients with short bowel syndrome were divided into two groups: a control group (43 total individuals) to receive placebo, and an experimental group (42 total individuals) to receive teduglutide at 0.05 mg/kg/day throughout the study. Patients were treated by subcutaneous injection of placebo or the appropriate dose of teduglutide. Known biomarkers of liver function were monitored every four weeks, for 24 weeks. The liver biomarkers tested included albumin, gamma glutamyl transferase, total bilirubin, ALT and AST and ALP. Before administration of placebo or teduglutide, diagnostic biomarker levels were tested to establish a baseline for each individual.
To determine the effect of GLP-2 on the levels of the diagnostic biomarkers, the average level of each biomarker was measured for the placebo and teduglutide treated groups for each visit. Furthermore, the average change from baseline was calculated using the established baseline values. For FIGS. 17-28, p-values were calculated using the t-test.
P values are provided, which were calculated for each distribution of biomarker changes for each week using the chi-squared test.

CC[C@H](C)[C@H](NC(=O)[C@H](Cc1ccccc1)NC(=O)[C@H](CC(=O)O)NC(=O)[C@H](CCCNC(=N)N)NC(=O)[C@H](C)NC(=O)[C@H](C)NC(=O)[C@H](CC(C)C)NC(=O)[C@H](CC(N)=O)NC(=O)[C@H](CC(=O)O)NC(=O)[C@H](CC(C)C)NC(=O)[C@@H](NC(=O)[C@@H](NC(=O)[C@H](CC(N)=O)NC(=O)[C@H](CCSC)NC(=O)[C@H](CCC(=O)O)NC(=O)[C@H](CC(=O)O)NC(=O)[C@H](CO)NC(=O)[C@H](Cc1ccccc1)NC(=O)[C@H](CO)NC(=O)CNC(=O)[C@H](CC(=O)O)NC(=O)CNC(=O)[C@@H](N)Cc1c[nH]cn1)[C@@H](C)O)[C@@H](C)CC)C(=O)N[C@@H](CC(N)=O)C(=O)N[C@@H](Cc1c[nH]c2ccccc12)C(=O)N[C@@H](CC(C)C)C(=O)N[C@H](C(=O)N[C@@H](CCC(N)=O)C(=O)N[C@H](C(=O)N[C@@H](CCCCN)C(=O)N[C@H](C(=O)N[C@H](C(=O)N[C@@H](CC(=O)O)C(=O)O)[C@@H](C)O)[C@@H](C)CC)[C@@H](C)O)[C@@H](C)CC [teduglutide]
Gamma Glutamyl Transferase Observed Value, Mean (Week 16): 72.4 U/L
Gamma Glutamyl Transferase Observed Value, Median (Week 16): 54 U/L
ALT >10% decrease from Baseline, % of subjects (Week 20): (60.5%)
ALT >10% decrease from Baseline, n subjects (Week 20): 23
ALT >10% increase from Baseline, % of subjects (Week 20): (13.2%)
ALT >10% increase from Baseline, n subjects (Week 20): 5
ALT Within 10% of Baseline, % of subjects (Week 20): (26.3%)
ALT Within 10% of Baseline, n subjects (Week 20): 10
AST >10% decrease from Baseline, % of subjects (Week 20): (52.6%)
AST >10% decrease from Baseline, n subjects (Week 20): 20
AST >10% increase from Baseline, % of subjects (Week 20): (18.4%)
AST >10% increase from Baseline, n subjects (Week 20): 7
AST Within 10% of Baseline, % of subjects (Week 20): (28.9%)
AST Within 10% of Baseline, n subjects (Week 20): 11
Albumin >10% decrease from Baseline, % of subjects (Week 20): (2.6%)
Albumin >10% decrease from Baseline, n subjects (Week 20): 1
Albumin >10% increase from Baseline, n subjects (Week 20): 0
Albumin Within 10% of Baseline, % of subjects (Week 20): (97.4%)
Albumin Within 10% of Baseline, n subjects (Week 20): 37
Alkaline Phosphatase >10% decrease from Baseline, % of subjects (Week 20): (60.5%)
Alkaline Phosphatase >10% decrease from Baseline, n subjects (Week 20): 23
Alkaline Phosphatase >10% increase from Baseline, % of subjects (Week 20): (7.9%)
Alkaline Phosphatase >10% increase from Baseline, n subjects (Week 20): 3
Alkaline Phosphatase Within 10% of Baseline, % of subjects (Week 20): (31.6%)
Alkaline Phosphatase Within 10% of Baseline, n subjects (Week 20): 12
Bilirubin >10% decrease from Baseline, % of subjects (Week 20): (65.8%)
Bilirubin >10% decrease from Baseline, n subjects (Week 20): 25
Bilirubin >10% increase from Baseline, % of subjects (Week 20): (21.1%)
Bilirubin >10% increase from Baseline, n subjects (Week 20): 8
Bilirubin Within 10% of Baseline, % of subjects (Week 20): (13.2%)
Bilirubin Within 10% of Baseline, n subjects (Week 20): 5
ALKALINE PHOSPHATASE Change from Baseline, Median (Week 20): −25.5 U/L
ALT Change from Baseline, Mean (Week 20): −10.3 U/L
ALT Change from Baseline, Median (Week 20): −6.5 U/L
ALT Observed Value, Mean (Week 20): 34.8 U/L
ALT Observed Value, Median (Week 20): 28.5 U/L
AST Change from Baseline, Mean (Week 20): −4.2 U/L
AST Change from Baseline, Median (Week 20): −2.5 U/L
AST Observed Value, Mean (Week 20): 28.4 U/L
AST Observed Value, Median (Week 20): 24.5 U/L
Albumin Change from Baseline, Mean (Week 20): -0.6 g/L
Albumin Change from Baseline, Median (Week 20): -1 g/L
Albumin Observed Value, Mean (Week 20): 41.8 g/L
Albumin Observed Value, Median (Week 20): 43 g/L
Alkaline Phosphatase Change from Baseline, Mean (Week 20): −28.6 U/L
Alkaline Phosphatase Observed Value, Mean (Week 20): 109.8 U/L
Alkaline Phosphatase Observed Value, Median (Week 20): 94.5 U/L
Bilirubin Change from Baseline, Mean (Week 20): -2.76 µmol/L
Bilirubin Change from Baseline, Median (Week 20): -1.7 µmol/L
Bilirubin Observed Value, Mean (Week 20): 9.88 µmol/L
Bilirubin Observed Value, Median (Week 20): 7.85 µmol/L
Gamma Glutamyl Transferase Change from Baseline, Mean (Week 20): −9.6 U/L
Gamma Glutamyl Transferase Change from Baseline, Median (Week 20): −8 U/L
Gamma Glutamyl Transferase Observed Value, Mean (Week 20): 70.1 U/L
Gamma Glutamyl Transferase Observed Value, Median (Week 20): 47.5 U/L
ALT >10% decrease from Baseline, % of subjects (Week 24): (63.2%)
ALT >10% decrease from Baseline, n subjects (Week 24): 24
ALT >10% increase from Baseline, % of subjects (Week 24): (10.5%)
ALT >10% increase from Baseline, n subjects (Week 24): 4
ALT Within 10% of Baseline, % of subjects (Week 24): (26.3%)
ALT Within 10% of Baseline, n subjects (Week 24): 10
AST >10% decrease from Baseline, % of subjects (Week 24): (63.2%)
AST >10% decrease from Baseline, n subjects (Week 24): 24
AST >10% increase from Baseline, % of subjects (Week 24): (15.8%)
AST >10% increase from Baseline, n subjects (Week 24): 6
AST Within 10% of Baseline, % of subjects (Week 24): (21.1%)
AST Within 10% of Baseline, n subjects (Week 24): 8
Albumin >10% decrease from Baseline, % of subjects (Week 24): (5.3%)
Albumin >10% decrease from Baseline, n subjects (Week 24): 2
Albumin >10% increase from Baseline, n subjects (Week 24): 0
Albumin Within 10% of Baseline, % of subjects (Week 24): (94.7%)
Albumin Within 10% of Baseline, n subjects (Week 24): 36
Alkaline Phosphatase >10% decrease from Baseline, % of subjects (Week 24): (60.5%)
Alkaline Phosphatase >10% decrease from Baseline, n subjects (Week 24): 23
Alkaline Phosphatase >10% increase from Baseline, % of subjects (Week 24): (15.8%)
Alkaline Phosphatase >10% increase from Baseline, n subjects (Week 24): 6
Alkaline Phosphatase Within 10% of Baseline, % of subjects (Week 24): (23.7%)
Alkaline Phosphatase Within 10% of Baseline, n subjects (Week 24): 9
Bilirubin >10% decrease from Baseline, % of subjects (Week 24): (68.4%)
Bilirubin >10% decrease from Baseline, n subjects (Week 24): 26
Bilirubin >10% increase from Baseline, % of subjects (Week 24): (15.8%)
Bilirubin >10% increase from Baseline, n subjects (Week 24): 6
Bilirubin Within 10% of Baseline, % of subjects (Week 24): (15.8%)
Bilirubin Within 10% of Baseline, n subjects (Week 24): 6
ALKALINE PHOSPHATASE Change from Baseline, Median (Week 24): −24.5 U/L
ALT Change from Baseline, Mean (Week 24): −13.5 U/L
ALT Change from Baseline, Median (Week 24): −7.5 U/L
ALT Observed Value, Mean (Week 24): 28.5 U/L
ALT Observed Value, Median (Week 24): 23.5 U/L
AST Change from Baseline, Mean (Week 24): −5.8 U/L
AST Change from Baseline, Median (Week 24): −5 U/L
AST Observed Value, Mean (Week 24): 25.8 U/L
AST Observed Value, Median (Week 24): 23 U/L
Albumin Change from Baseline, Mean (Week 24): -0.4 g/L
Albumin Change from Baseline, Median (Week 24): 0 g/L
Albumin Observed Value, Mean (Week 24): 41.9 g/L
Albumin Observed Value, Median (Week 24): 42 g/L
Alkaline Phosphatase Change from Baseline, Mean (Week 24): −29.2 U/L
Alkaline Phosphatase Observed Value, Mean (Week 24): 106.2 U/L
Alkaline Phosphatase Observed Value, Median (Week 24): 88 U/L
Bilirubin Change from Baseline, Mean (Week 24): -3.68 µmol/L
Bilirubin Change from Baseline, Median (Week 24): -2.35 µmol/L
Bilirubin Observed Value, Mean (Week 24): 8.64 µmol/L
Bilirubin Observed Value, Median (Week 24): 6.8 µmol/L
Gamma Glutamyl Transferase Change from Baseline, Mean (Week 24): −13.6 U/L
Gamma Glutamyl Transferase Change from Baseline, Median (Week 24): −6 U/L
Gamma Glutamyl Transferase Observed Value, Mean (Week 24): 60.4 U/L
Gamma Glutamyl Transferase Observed Value, Median (Week 24): 40.5 U/L
